Data: US20240316079A1, “USE OF AKR1C3-ACTIVATED COMPOUND” (OBI PHARMA, INC., priority 2021, published 2024)
Read-outs that look alike come from different tables or passages of the source.

Assays:
[1] = test system: H460 subcutaneous xenograft; format: in vivo, mice; conditions: 1 week off, Q7D × 2
Procedure: (§1) In vivo anti-tumor activity of 3424 was evaluated using GFP-expressing cancer cell lines in an orthotopic liver cancer model (HepG2) and a subcutaneous lung cancer model (H460) CDX models at AntiCancer, Inc (Beijing, China). Female athymic nude mice (6 weeks; BALB/c-nu, Beijing HFK Bioscience Co., Ltd., Beijing, China) were used in the studies. Each mouse was implanted with a HepG2-GFP tumor chunk (˜1 mm^3 in diameter) in the right lobe of the liver for tumor development or inoculated subcutaneously with H460-GFP tumor chunk (˜1 mm^3 in diameter). About 3-10 days later, whole mouse body scan was performed using FluorVivo Model-100 fluorescence imager (INDEC Biosystems, Inc., Los Altos, CA). Mice with similar fluorescent areas were selected and randomly grouped. Both cell lines expressed high level of AKR1C3. Prodrug 3424 was dosed intravenously (IV) at 1.25, 2.5 mg/kg or 5 mg/kg Q7D×2 for the HepG2 orthotopic model or at 0.625, 1.25 or 2.5 mg/kg for the H460 xenograft model with a regimen of Q7D×2, 1 week off, then Q7D×2 again. Sorafenib was used as the positive control in the HepG2 model and was dosed orally at 30 mg/kg with a regimen of QD×5×7 cycles. Taxol was used as the positive control in the H460 model and was administered at 15 mg/kg IV with a regimen of BIW×4. During the experiments, mice were observed daily and body weight was measured twice a week. Tumor burden was monitored twice a week either by caliper measurement (H460) or FluorVivo fluorescence imager (H460-GFP and HepG2-GFP).

[2] = test system: HepG2 orthotopic xenograft; format: in vivo, mice; conditions: for TGI: Day 34
Procedure: as §1

NCI-H522 = assay: In vitro proliferation assay, NSCLC cell line NCI-H522; format: cell-based; conditions: Homo sapiens, 72 hours of drug exposure, read-out: 3424 IC50
Procedure: (§2) IC50 was calculated as described above.

H460 cells = assay: Cytotoxicity in H460 cells in the absence or presence of AKR1C3 inhibitor 3021; conditions: Homo sapiens, NCI-H460, 2 h, read-out: IC50 (cytotoxicity)
Procedure: Exponentially growing cells were seeded 24 hours before the addition of test compounds. After addition of test compounds, the plates were incubated for the indicated hours at 37° C. in a standard tissue culture incubator. At the end of the experiment, the viable cells were detected using either a CellTiter Glo (CTG) assay kit or AlamarBlue^(28,29). […] For 3021 experiments, cells were pretreated with 3 μM of 3021 for 2 h prior to compound treatment under air. IC50 was calculated as described above.

HLE = assay: In vitro proliferation assay, liver cancer cell line HLE; format: cell-based; conditions: Homo sapiens, 96 hours of drug exposure, AKR1C3 protein Medium, read-out: 3424 IC50
Procedure: as §2

NCIH2106 = assay: In vitro proliferation assay, NSCLC cell line NCIH2106; format: cell-based; conditions: Homo sapiens, 72 hours of drug exposure, read-out: 3424 IC50
Procedure: as §2

SNU-182 = assay: In vitro proliferation assay, liver cancer cell line SNU-182; format: cell-based; conditions: Homo sapiens, 96 hours of drug exposure, AKR1C3 protein Low, read-out: 3424 IC50
Procedure: as §2

recombinant human AKR1C3 = molecular target: T1, recombinant human AKR1C3 (Homo sapiens, UniProt P42330); assay: AKR1C3-dependent activation of 3424 (2660 production, LC-MS/MS); format: biochemical; conditions: incubation with AKR1C3, n = 3, mean ± SD
T1 construct: purchased Abcam (Cambridge, MA)
T1 sequence (P42330 1-323): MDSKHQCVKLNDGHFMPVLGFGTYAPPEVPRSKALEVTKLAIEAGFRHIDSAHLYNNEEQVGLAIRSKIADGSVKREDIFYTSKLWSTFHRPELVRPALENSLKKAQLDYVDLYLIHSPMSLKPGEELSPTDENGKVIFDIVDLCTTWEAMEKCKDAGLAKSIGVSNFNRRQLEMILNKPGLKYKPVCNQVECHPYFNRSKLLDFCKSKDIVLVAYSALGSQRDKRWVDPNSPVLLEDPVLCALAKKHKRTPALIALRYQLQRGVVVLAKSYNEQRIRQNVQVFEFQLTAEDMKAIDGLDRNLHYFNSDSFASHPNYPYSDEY
Procedure: The reaction was incubated at 25° C. and terminated at various time points by adding acetonitrile and methanol (at a ratio of 9 to 1) and subjected for LC-MS/MS analysis. For enzyme kinetic analysis, the activity was determined with a SpectraMax M2^e spectrophotometer (Molecular Devices, LLC, San Jose, CA) by measuring the decrease in absorbance of the NADPH at 340 nm (E=6270 M^−1 cm^−1). After the initiation of the reaction by addition of substrates, the reactions were monitored at 30 s intervals at 25° C. The non-substrate reaction rate was also monitored as background and its slope was used to determine the initial velocity of the reaction. The kinetic data reported were the average of triplicate measurements. For AKR1C3-mediated 3424 metabolism, LC/MS/MS was performed using a Sciex API-4000 Qtrap (ABSciex, LLC, Framingham, MA) mass spectrometer coupled to an Agilent 1200 HPLC system (Agilent Technologies, Santa Clara, CA). […] The column oven temperature was 40° C. and the sample injection volume was 2 μL. The mass spectra were obtained in positive MRM mode. In positive ion mode, the ion spray voltage was set at 4500 V, declustering potential at 80 V, collision energy at 20 V, source temperature at 350° C., curtain gas at 10 psi and the source gas 1 and 2 both at 60 psi. […] For 2660 analysis, normal phase liquid chromatographic separation was performed with Waters Atlantis HILIC Silica column (2.1 mm×100 mm, 3 μm, Waters Corp., Milford, MA) in a total run time of 9 min using a flow rate of 0.3 mL/min. The mobile phase A consisted of 1 mM ammonium formate in water and mobile phase B using ACN. […] The column oven temperature was 40° C. and the sample injection volume was 2 μL. The mass spectra were obtained in negative MRM mode. In negative ion mode, the ion spray voltage was set at −4500 V, declustering potential at −60 V, collision energy at −30 V, source temperature at 350° C., curtain gas at 10 psi and the source gas 1 and 2 both at 60 psi. […] The peak area ratio for each MRM transition (peak area of analyte/peak area of analyte-IS) of calibration standards and samples were used for quantitative analysis using Analyst 1.6 software (ABSciex, Framingham, MA).

HLF = assay: In vitro proliferation assay, liver cancer cell line HLF; format: cell-based; conditions: Homo sapiens, 96 hours of drug exposure, AKR1C3 protein Low, read-out: 3424 IC50
Procedure: as §2

HuCCT1 = assay: In vitro proliferation assay, liver cancer cell line HuCCT1; format: cell-based; conditions: Homo sapiens, HuCCT-1, 96 hours of drug exposure, AKR1C3 protein Low, read-out: 3424 IC50
Procedure: as §2

C[C@H](OP(=O)(N1CC1)N1CC1)c1ccc([N+](=O)[O-])c(Oc2cccc(C(=O)N(C)C)c2)c1 [Compound 3424, (S)-1-(3-(3-N,N-dimethylaminocarbonyl)phenoxyl-4-mtrophenyl)-1-ethyl-N,N′-bis(ethylene)phosphoramidate]
TGI ([1]; 3424 0.625 mg/kg i.v. Q7D × 2): 60.2% | TGI ([1]; 3424 1.25 mg/kg i.v. Q7D × 2): 67.2% | TGI ([1]; 3424 2.5 mg/kg i.v. Q7D × 2, 2.5 mg/kg): 88% | TGI ([2]; 3424 1.25 mg/kg i.v. Q7D × 2): 52.4% | complete regression rate ([2]; 3424 2.5 mg/kg i.v. Q7D × 2): 80% | TGI ([2]; 3424 2.5 mg/kg i.v. Q7D × 2): 91.5% | complete regression rate ([2]; 3424 5 mg/kg i.v. Q7D × 2): 100% | TGI ([2]; 3424 5 mg/kg i.v. Q7D × 2): 101.2% | body weight loss ([2]; mouse, in vivo): no body weight loss | IC50 (NCI-H522): > 1 µM | IC50 (H460 cells): 0.004 µM | IC50 (HLE): 0.113 µM | IC50 (NCIH2106): > 1 µM | IC50 (SNU-182): > 1 µM | 2660 Concentration (recombinant human AKR1C3; 3424 concentration 10 μM): 10.71 ± 0.53 µM | 2660 Concentration (recombinant human AKR1C3; 3424 concentration 20 μM): 14.77 ± 1.44 µM | 2660 Concentration (recombinant human AKR1C3; 3424 concentration 30 μM): 33.96 ± 1.90 µM | 2660 Concentration (recombinant human AKR1C3; 3424 concentration 40 μM): 34.30 ± 6.63 µM | 2660 Concentration (recombinant human AKR1C3; 3424 concentration 50 μM): 34.59 ± 7.44 µM | IC50 (HLF): > 1 µM | IC50 (HuCCT1): 0.696 µM
